# Experimental data published in article PMC3960075 (ACS chemical biology, 2012).
# Entries after “also recorded” stand apart in the source; their conditions may differ.
# What was measured:
# [1] = molecular target: T1, PAN endonuclease (influenza virus PA N-terminal domain) (Influenza A virus, UniProt Q5EP34); assay type: binding
# in vitro = conditions: dog
# influenza A/PR/8/34 = experiment: microbe, parasite or virus in culture; assay type: cell-based, avian H1N1 influenza A virus (A/PuertoRico/8/34); conditions: for IC50: Influenza A virus, PR/8, MDCK, read-out: IC50, viral plaque inhibition
# immunoglobulin G (IgG) = experiment: Direct binding FP specificity control with IgG; conditions: IgG 2-fold serial dilutions from 100 μM, 4 at 60 nM
# [2] = molecular target: T1, PAN endonuclease (influenza virus PA N-terminal domain); assay type: binding; remark: listed apart in the source
SMILES,"FP competitive binding, result in words [1]",IC50 (influenza A/PR/8/34) [µM],other results
O=C(O)/C=C/C(=O)c1ccccc1 [Compound 18],inactive,–,–
C[C@@H](NC(=O)c1nc(-c2cnccn2)[nH]c(=O)c1O)c1ccccc1 [Compound 45],–,12.68 ± 0.08,CC50 (in vitro): > 60 µM
C[C@H](NC(=O)c1nc(-c2cnccn2)[nH]c(=O)c1O)c1ccccc1 [Compound 44],–,18.61 ± 0.09,CC50 (in vitro): > 60 µM
"O=C(O)/C(O)=C/C(=O)C1(Cc2ccc(Cl)cc2)CCN(Cc2ccccc2)CC1 [Compound 2, reference compound]",–,3.13 ± 0.08,inhibition (displacement of 4 from PAN) ([1]; 250 µM): 100%
COc1ccc2c(c1)CC(C(=O)C(=O)O)=C2O [Compound 15],inactive,–,–
O=C(NCCc1ccccc1)c1nc(-c2cnccn2)[nH]c(=O)c1O [Compound 43],–,> 100,"Inhibition of viral plaque formation, result in words (influenza A/PR/8/34): inactive"
O=C(O)/C(O)=C/C(=O)c1cccnc1 [Compound 13],inactive,–,–
"CCC(CC)O[C@@H]1C=C(C(=O)O)C[C@H](N)[C@H]1NC(C)=O [oseltamivir carboxylate, reference compound]",–,–,inhibition of viral plaque formation (influenza A/PR/8/34): 100%
O=C(O)C(=O)C1=C(O)c2ccccc2OC1 [Compound 14],inactive,–,–
CC(C)(C)OC(=O)/C(O)=C/C(=O)c1ccccc1 [Compound 17],inactivity,–,–
O=C(O)/C(O)=C/C(=O)C1(Cc2ccc(Cl)cc2)CCN(C(=O)c2ccc(-c3c4ccc(=O)cc-4oc4cc(O)ccc34)c(C(=O)O)c2)CC1 [Compound 4],–,–,Non-specific binding to IgG (immunoglobulin G (IgG)): not observed; dynamic range [2]: 124.3 ± 0.9 mP
O=C(O)c1nc(-c2cnccn2)nc(O)c1O [Compound 31],–,> 50,–
O=C(O)CCC(=O)c1ccccc1 [Compound 19],no inhibition; also recorded: inactive,–,–
"COC(=O)/C(O)=C/C(=O)c1ccccc1 [Compound 16, reference compound]",inactivity,> 100,"Inhibition of viral plaque formation, result in words (influenza A/PR/8/34): inactive"
CC(NC(=O)c1nc(-c2cnccn2)[nH]c(=O)c1O)c1ccccc1 (centres unmarked) [Compound 42],–,14.28 ± 0.07,CC50 (in vitro): > 60 µM
